# Reference: US20130184246A1, “METHOD FOR TREATING FATTY LIVER DISEASES, IN PARTICULAR NON-ALCOHOLIC STEATOHEPATITIS” (priority 2010, published 2013)
# Assays:
# LDLr−/− mice [1] = test: Liver lipid analysis, NASH treatment with 27-HC; type: in vivo
# Protocol: (§1) The experimental approach consisted of utilizing low-density (LDL) receptor-deficient mice (LDLr−/−) on a C57B16 background. This mouse model is predisposed to elevated serum cholesterol levels when fed a high-fat diet. On a normal chow diet, these mice have a three-fold increase in cholesterol levels when compared to controls.^(39) The lab determined that two weeks is sufficient for mice to reach a steatotic and inflamed liver state.
# Experiments were performed in accordance with Dutch law for animal experimentation and approved by the Committee for Animal Welfare of the University of Maastricht. […]
# Homogenization of approximately 50 mg of frozen liver tissue was completed at 5000 rpm for 30 seconds with 1.0 mm glass beads along with 1.0 ml SET buffer (sucrose 250 mmol/L, EDTA 2 mmol/L, and Tris 10 mmol/L). […] After adding 200 μl of the reagents (50 parts A, 1 part B) and letting the mixture stand for 30 minutes at 37° C., the absorbance was measured utilizing the enzymatic color test bicinchoninic acid (BCA) method (Pierce, Rockford, Ill.) at a wavelength of 560 nm with a Benchmark 550 Micro-plate reader (170-6750XTU; Bio-Rad, Hercules, Calif.). […]
# LDLr−/− mice [2] = test: Steatosis scoring by HE and oil red O staining of liver sections; type: in vivo; conditions: high-fat diet 27-HC-treated groups
# Protocol: A total of five different experimental groups, ranging from eigtht to nine mice per group, were used to assess the effects of 27-HC. The 27-HC was dissolved in 2-hydroxypropyl-β-cyclodextrin (Sigma-Aldrich GmbH H5784; St. Louis, Mo.) and injected with a concentration of 40 mg of 27-HC per kilogram of body weight via a subcutaneous injection. Mice in Group A received a chow diet and control injections consisting of 2-hydroxypropyl-β-cyclodextrin dissolved in sodium chloride. Group B mice were also on the chow diet but are given daily subcutaneous injections of 27-HC. Group C were the mice that received the high-fat diet (21% fat; 0.2% cholesterol) and control injections. To differentiate between a therapeutic and a regression effect of the 27-HC, the following two groups were set up: a high-fat diet with daily 27-HC injections (Group D) and a high-fat diet group with two weeks of control injections followed by a week of 27-HC injections (Group E). Mice were housed under standard conditions with food and water available ad libidum. […]
# Stained sections were scored in a blind manner by a specialized animal pathologist. […] Sections were scored for the quantity of fat droplets and for the foamy appearance of Kupffer cells. […]
# To verify the quantification of fat, 7 μm thick frozen sections were stained with oil red O (ORO; O0725; Sigma-Aldrich), the neutral lipid marker. […]
# [3] = tested on: hyperlipidemic LDLR knockout mice; test: HFC diet supplemented with 27-hydroxycholesterol in hyperlipidemic LDLR knockout mice; type: in vivo; conditions: HFC diet supplemented with 27-hydroxycholesterol 0.1% w/w for three weeks vs HFC diet
# Source text: To determine whether exogenous 27-HC can reduce hepatic inflammation, hyperlipidemic LDLR knockout mice may be fed either chow, HFC diet or HFC diet supplemented with 27-hydroxycholesterol (0.1% w/w) for three weeks. Then, the mice may be sacrificed and detailed characterization of liver and plasma may be performed.
# LDLr−/− mice [4] = test: Hepatic inflammation: immunohistochemical staining for infiltrated macrophages (MAC1) and neutrophils (NIMP); type: in vivo; conditions: vs Group C; for Infiltrated macrophages (MAC1 staining): FIG. 3A
# Protocol: A total of five different experimental groups, ranging from eigtht to nine mice per group, were used to assess the effects of 27-HC. The 27-HC was dissolved in 2-hydroxypropyl-β-cyclodextrin (Sigma-Aldrich GmbH H5784; St. Louis, Mo.) and injected with a concentration of 40 mg of 27-HC per kilogram of body weight via a subcutaneous injection. Mice in Group A received a chow diet and control injections consisting of 2-hydroxypropyl-β-cyclodextrin dissolved in sodium chloride. Group B mice were also on the chow diet but are given daily subcutaneous injections of 27-HC. Group C were the mice that received the high-fat diet (21% fat; 0.2% cholesterol) and control injections. To differentiate between a therapeutic and a regression effect of the 27-HC, the following two groups were set up: a high-fat diet with daily 27-HC injections (Group D) and a high-fat diet group with two weeks of control injections followed by a week of 27-HC injections (Group E). Mice were housed under standard conditions with food and water available ad libidum.
# One day previous to the start of the experiment, the mice were weighed and 100-200 μl of blood were collected in a capillary tube after four hours of fasting via an incision in the tail vein. On day 0, the feeding of specialized diets and injections began according to each group. On the 21st day after the start of the experiment, the animals were weighed and fasted for four hours and had another 100-200 μl of blood drawn and collected in a capillary tube via an incision in the tail vein. Afterwards, the mice were sacrificed via cervical dislocation and immediately had their livers removed via a laparotomy consisting of an incision from the pelvis to the rib cage to gain access into the abdomen. […]
# Nikon digital camera model DMX1200 and ACT-1 v2.63 software from Nikon Corporation were used to photograph each section. […] The positive cells for each picture were then counted or scored and noted as cells or lipid droplets per square millimeter, respectively.
# LDLr−/− mice [5] = test: Plasma lipid analysis, NASH treatment with 27-HC; type: in vivo
# Protocol: as §1
# Experiments were performed in accordance with Dutch law for animal experimentation and approved by the Committee for Animal Welfare of the University of Maastricht. In this study, the aim was to investigate the ability of 27-hydroxycholesterol (generous gift from Dr. Norman B. Javitt; New York University School of Medicine) to reduce hepatic inflammation and to characterize its potential use as a therapeutic agent for NASH patients. […]
# Plasma cholesterol and triglyceride measurements were tested with the enzymatic color tests. […] Absorbance was measured at the 490 nm wavelength with a Benchmark 550 Micro-plate reader. […] Subsequently, 200 μl of reagent A was added, mixed, and after 15 minutes of incubation, read at a wavelength of 545 nm for the initial absorbance. […] The final absorbance was then measured at 545 nm. The concentration of triglycerides was then calculated by subtracting the initial concentrations from the final concentrations. […]
# fibroblasts = test: Incubation of fibroblasts with 27-HC, endolysosomal cholesterol accumulation; type: cell-based
compound,measurement,setting,value
"C[C@@H](CO)CCC[C@@H](C)[C@H]1CC[C@H]2[C@@H]3CC=C4C[C@@H](O)CC[C@]4(C)[C@H]3CC[C@]12C [27-HC, 27-hydroxycholesterol]",Liver cholesterol levels,"LDLr−/− mice [1]; 27-HC 40 mg/kg s.c. injected groups vs control-injected groups, 3 weeks, FIG. 2C",do not show altered cholesterol levels
same,Liver triglycerides,"LDLr−/− mice [1]; among high-fat diet groups C-E, FIG. 2D",no significant differences
same,"Steatosis score, HE staining",LDLr−/− mice [2]; FIG. 2E,do not show any statistical significance or trends
same,"Steatosis score, oil Red O staining",LDLr−/− mice [2]; FIG. 2F,do not show any statistical significance or trends
same,Liver and systemic inflammation,[3],reduced liver and systemic inflammation
same,Lysosomal cholesterol accumulation,[3],less lysosomal cholesterol accumulation
same,Infiltrated macrophages (MAC1 staining),"LDLr−/− mice [4]; Group D: high-fat diet, daily 27-HC for three weeks",significantly decreased
same,Neutrophils (NIMP staining),"LDLr−/− mice [4]; Group D: high-fat diet, daily 27-HC for three weeks, FIG. 3B",decreased neutrophils
same,Infiltrated macrophages (MAC1 staining),"LDLr−/− mice [4]; Group E: high-fat diet, two weeks control injections then one week 27-HC",significantly decreased
same,Plasma cholesterol levels,"LDLr−/− mice [5]; 27-HC 40 mg/kg s.c. injected groups vs control-injected groups, 3 weeks, FIG. 2A",do not show altered cholesterol levels
same,Plasma triglycerides,"LDLr−/− mice [5]; Group D: high-fat diet, daily 27-HC 40 mg/kg s.c. for three weeks, vs Groups C and E, FIG. 2B",diminished
same,Endolysosomal cholesterol accumulation,fibroblasts,decrease endolysosomal cholesterol accumulation
